Experimental data taken from patent publication US10941121B2 (AZIENDA OSPEDALIERA UNIVERSITARIA SENESE, priority 2015, dated 2021).
pEC50, pIC50: −log10 of the molar value. Where two headings read alike, the source gives them in different places.

Tests used:
[1] = system: Hepatitis C Virus (HCV) replicon system; assay: HCV replicon system, luciferase method in LucUbiNeo-ET cells; conditions: for EC50: Hepatitis C virus, 48 h, read-out: EC50 (μM) HCV replicon system
[2] = system: HIV-1 wild-type reference strain NL4-3; assay: HIV-1 phenotypic assay, MT-2 cells then TZM-bl cells, luciferase; format: cell-based; conditions: Human immunodeficiency virus 1, NL43; first cycle in MT-2 cells, additional round in TZM-bl cells
[3] = system: EBOV expressing GFP (EBOV/GFP); format: cell-based, Ebola virus
[4] = Cytotoxicity, MTT method in LUNET cells; format: cell-based; conditions: human; MMT method in LUNET cells; read-out: CC50 (μM) non-infected cells
Procedure: Toxicity (CC50) was analysed in the Lunet/HuH7 cells by the addition of 10 μL of MTT (3-(4,5-dimethylthiazol-2-yl)-2,5-diphenyltetrazolium bromide) per well. After 4 h of incubation at 37° C. in a humidified atmosphere with 5% CO2, the amount of formazan produced was quantified spectrophotometrically at 550/620 nm (C. Pannecouque et al, Nature protocol 2008; 3 (3): 427-434). […] These assays were done in duplicate.

DDX3 Helicase [5] = target: T1, DDX3 Helicase (Homo sapiens, UniProt O00571); assay: biochemical
JEV strain (NJ2008) = assay: JEV infectious cell culture system, plaque formation assay in BHK-21 cells; conditions: Japanese encephalitis virus, BHK-21, read-out: JEV EC50
[6] = Cytotoxicity in the JEV cell culture system; conditions: hamster
[7] = system: human liver microsome (HLM); assay: Microsomal Stability Assay; conditions: human liver microsomes, 37 °C, 60 min, compound 50 μM; percentage of not metabolized compound
Water Solubility Assay = format: physicochemical; conditions: thermodynamic from solid
Procedure: Water Solubility Assay. Each solid compound (1 mg) was added to 1 mL of water. The samples were shaked in a shaker bath at room temperature for 24-36 h. The suspensions were filtered through a 0.45 μm nylon filter (Acrodisc), and the solubilized compound determined by LC-MS-MS assay. For each compound the determination was performed in triplicate.
For the quantification was used an LC-MS system consisted of a Varian apparatus (Varian Inc) including a vacuum solvent degassing unit, two pumps (212-LC), a Triple Quadrupole MSD (Mod. 320-LC) mass spectrometer with ES interface and Varian MS Workstation System Control Vers. 6.9 software. […] The flow rate was 0.2 mL min^−1 and injection volume was 5 μL. The instrument operated in positive mode and parameters were: detector 1850 V, drying gas pressure 25.0 psi, desolvation temperature 300.0° C., nebulizing gas 40.0 psi, needle 5000 V and shield 600 V. Nitrogen was used as nebulizer gas and drying gas. Collision induced dissociation was performed using Argon as the collision gas at a pressure of 1.8 mTorr in the collision cell.

[8] = Parallel Artificial Membrane Permeability Assay (PAMPA); format: in vitro ADME; conditions: for Papp at 5 h, 0.5 mM: PAMPA, phosphatidylcholine in dodecane, pH 7.4, 5 h, room temperature, read-out: PAMPA Papp *10^−6 (cm/s) GI; for PAMPA membrane retention (RM %): value in brackets in the PAMPA cell
Procedure: Parallel Artificial Membrane Permeability Assay (PAMPA). Donor solution (0.5 mM) was prepared by diluting 1 mM dimethylsulfoxide (DMSO) compound stock solution using phosphate buffer (pH 7.4, 0.025 M). Filters were coated with 5 μL of a 1% (w/v) dodecane solution of phosphatidylcholine prepared from CHCl3 solution 10% w/v, for intestinal permeability. Donor solution (150 μL) was added to each well of the filter plate. To each well of the acceptor plate were added […] (50% DMSO in phosphate buffer). All compounds were tested in three different plates on different days. The sandwich was incubated for 5 h at room temperature under gentle shaking. After the incubation time, the plates were separated, and samples were taken from both receiver and donor sides and analyzed using LC with UV detection at 280 nm.
LC analysis were performed with a Varian Prostar HPLC system (Varian Analytical Instruments, USA) equipped with a binary pump with a manual injection valve and model Prostar 325 UV-VIS Detector.
Permeability (Papp) for PAMPA was calculated according to the following equation, obtained from Wohnsland and Faller and Sugano et al. equation with some modification in order to obtain permeability values in cm s^−1,
where VA is the volume in the acceptor well, VD is the volume in the donor well (cm^3), A is the “effective area” of the membrane (cm^2), t is the incubation time (s) and r the ratio between drug concentration in the acceptor and equilibrium concentration of the drug in the total volume (VD+VA). Drug concentration is estimated by using the peak area integration.
Membrane retentions (%) were calculated according to the following equation: […]
where r is the ratio between drug concentration in the acceptor and equilibrium concentration, D, A, and Eq represented drug concentration in the donor, acceptor and equilibrium solution, respectively.

HIV (PBMC) = assay: HIV infectious cell culture system in PBMC, HIV-1 RNA in supernatant; conditions: Human immunodeficiency virus 1, PBMC, 72 h, read-out: EC50 HIV (PBMC) 72 h
[9] = Cytotoxicity in PBMC, CellTiter 96 MTS viability assay; format: cell-based; conditions: human, human primary PBMCs
[10] = Cytotoxicity in Huh7 cells, nuclei counts; conditions: human
DDX3 Helicase [11] = target: T1, DDX3 Helicase; conditions: for IC50: read-out: ID50 (μM) against DDX3 Helicase, n.a. = compound not active
[12] = experimental aqueous solubility, read-out: LogS (converted)
[13] = room temperature, 24-36 h, read-out: Aq. Solub.

T1 sequence (O00571 whole entry): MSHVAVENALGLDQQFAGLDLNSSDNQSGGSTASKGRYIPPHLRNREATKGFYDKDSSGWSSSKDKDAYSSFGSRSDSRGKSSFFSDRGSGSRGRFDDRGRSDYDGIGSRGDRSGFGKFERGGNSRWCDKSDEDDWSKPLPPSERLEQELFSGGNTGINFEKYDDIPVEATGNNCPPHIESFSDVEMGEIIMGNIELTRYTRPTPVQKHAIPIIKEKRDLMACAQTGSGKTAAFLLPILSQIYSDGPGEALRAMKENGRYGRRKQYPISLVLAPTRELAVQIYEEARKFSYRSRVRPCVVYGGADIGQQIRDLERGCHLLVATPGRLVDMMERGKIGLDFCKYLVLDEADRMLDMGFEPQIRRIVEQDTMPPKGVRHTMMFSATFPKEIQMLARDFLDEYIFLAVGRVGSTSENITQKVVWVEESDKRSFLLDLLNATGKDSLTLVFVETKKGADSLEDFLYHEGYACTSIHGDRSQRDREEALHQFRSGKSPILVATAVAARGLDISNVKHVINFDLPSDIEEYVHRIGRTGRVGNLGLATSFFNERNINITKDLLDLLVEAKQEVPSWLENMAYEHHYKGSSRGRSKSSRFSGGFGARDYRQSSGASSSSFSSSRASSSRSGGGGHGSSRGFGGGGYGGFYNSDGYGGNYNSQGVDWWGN

Structure (SMILES): CCCCn1nnc(-c2ccc(NC(=O)Nc3ccccc3C(F)(F)F)cc2)n1 [Compound 51, 1-(4-(2-butyl-2H-tetrazol-5-yl)phenyl)-3-(2-(trifluoromethyl)phenyl)urea]
- EC50 [1]: 0.6 µM
- pEC50 [2]: 5.26
- Normalized % infected cells [3]: 60%
- effect on EBOV replication, in words [3]: able to affect EBOV replication
- CC50 [4]: 6.7 µM
- pIC50 (DDX3 Helicase [5]): 6.10

Structure (SMILES): CCOCc1cn(-c2ccc(NC(=O)Nc3cc(C(C)C)ccc3C)cc2)nn1 [Compound 55e, 1-(4-(4-(ethoxymethyl)-1H-1,2,3-triazol-1-yl)phenyl)-3-(5-isopropyl-2-methylphenyl) urea]
- EC50 [1]: 1 µM
- pEC50 (JEV strain (NJ2008)): 5.48
- CC50 [6]: > 50 µM
- CC50 [4]: 245 µM
- pIC50 (DDX3 Helicase [5]): 6.05

Structure (SMILES): COc1cc(NC(=O)Nc2ccccc2C(F)(F)F)ccc1-n1cc(CCC(C)C)nn1 [Compound 80, 1-(4-(4-isopentyl-1H-1,2,3-triazol-1-yl)-3-methoxyphenyl)-3-(2-(trifluoromethyl)phenyl)urea]
- pEC50 [2]: 5.13
- pIC50 (DDX3 Helicase [5]): 6.40

Structure (SMILES): CCCCc1cn(-c2ccc(NC(=O)Nc3ccccc3C(F)(F)F)cc2F)nn1 [Compound 81, 1-(4-(4-butyl-1H-1,2,3-triazol-1-yl)-3-fluorophenyl)-3-(2-(trifluoromethyl)phenyl)urea]
- Metabolic stability (Sability %) [7]: 94%
- EC50 [1]: 1.99 µM
- solubility (Water Solubility Assay; [12]): 0.398 µM
- solubility (Water Solubility Assay; [13]): 80.1 µg/mL
- Papp at 5 h, 0.5 mM [8]: 7.22 ×10⁻⁶ cm/s
- PAMPA membrane retention (RM %) [8]: 30.4%
- CC50 [4]: 74.2 µM
- pIC50 (DDX3 Helicase [5]): 6.00

Structure (SMILES): CCCCc1nc(-c2cccc(S(=O)(=O)Nc3ccccc3C(F)(F)F)c2)no1 [Compound 134, 3-(5-butyl-1,2,4-oxadiazol-3-yl)-N-(2-(trifluoromethyl)phenyl)benzenesulfonamide]
- pEC50 [2]: 5.51
- pIC50 (DDX3 Helicase [5]): 6.00

Structure (SMILES): CC(C)CCc1cn(-c2ccc(NC(=O)Nc3ccccc3C(F)(F)F)cn2)nn1 [Compound 86, 1-(6-(4-isopentyl-1H-1,2,3-triazol-1-yl)pyridin-3-yl)-3-(2-(trifluoromethyl)phenyl)urea]
- pEC50 [2]: 5.52
- pIC50 (DDX3 Helicase [5]): 6.00

Structure (SMILES): CCOCc1cn(-c2ccc(NC(=O)Nc3cccc(F)c3)cc2)nn1 [Compound 55o, 1-(4-(4-(ethoxymethyl)-1H-1,2,3-triazol-1-yl)phenyl)-3-(3-fluorophenyl)urea]
- pEC50 [2]: 4.67

Structure (SMILES): CC(C)CCc1cn(-c2ccc(NC(=O)Nc3cccc4cnccc34)cc2)nn1 [Compound 55f, 1-(4-(4-isopentyl-1H-1,2,3-triazol-1-yl)phenyl)-3-(isoquinolin-5-yl)urea]
- EC50 [1]: 0.9 µM
- pEC50 (JEV strain (NJ2008)): 4.48
- CC50 [6]: > 50 µM
- CC50 [4]: > 312 µM
- pIC50 (DDX3 Helicase [5]): 6.30

Structure (SMILES): CCCCc1cc(-c2ccc(NC(=O)Nc3ccccc3C(F)(F)F)cc2)no1 [Compound 102, 1-(4-(5-butylisoxazol-3-yl)phenyl)-3-(2-(trifluoromethyl)phenyl)urea]
- pEC50 [2]: 4.14

Structure (SMILES): CCCCn1nnc(-c2ccc(NC(=O)Nc3ccccc3C)cc2)n1 [Compound 49, 1-(4-(2-butyl-2H-tetrazol-5-yl)phenyl)-3-(o-tolyl)urea]
- Metabolic stability (Sability %) [7]: 95.6%
- EC50 [1]: 7.16 µM
- pEC50 (JEV strain (NJ2008)): 5.15
- solubility (Water Solubility Assay; [12]): < 0.00316 µM
- solubility (Water Solubility Assay; [13]): < 0.001 µg/mL
- pEC50 (HIV (PBMC)): 5.02
- pEC50 [2]: 5.28
- CC50 [6]: > 50 µM
- CC50 at 24 h [9]: > 1000 µM
- CC50 at 48 h [9]: > 1000 µM
- CC50 at 72 h [9]: > 1000 µM
- Papp at 5 h, 0.5 mM [8]: 7.57 ×10⁻⁶ cm/s
- PAMPA membrane retention (RM %) [8]: 24.8%
- CC50 [4]: 11.2 µM
- pIC50 (DDX3 Helicase [5]): 5.31

Structure (SMILES): CCCCc1cn(-c2ccc(NC(=O)Nc3cc(OC4CCCC4)ccc3C)cc2)nn1 [Compound 55h, 1-(4-(4-butyl-1H-1,2,3-triazol-1-yl)phenyl)-3-(5-(cyclopentyloxy)-2-methylphenyl)urea]
- pEC50 [2]: 4.79
- pIC50 (DDX3 Helicase [5]): 7.00

Structure (SMILES): O=[N+]([O-])c1cccc(S(=O)(=O)Nc2ccccc2O)c1 [Compound 58a, N-(2-hydroxy)-3-nitro-phenylbenzenesulfonamide]
- EC50 [1]: 204 µM
- pEC50 (JEV strain (NJ2008)): 5.00
- pEC50 [2]: 4.69
- CC50 [6]: > 50 µM
- CC50 at 48 h ([10]; DENV CC50, Huh7 cells, DENV experiment): 99.4 µM
- CC50 at 48 h ([10]; WNV CC50, Huh7 cells, WNV experiment): 60.9 µM
- CC50 [4]: 215 µM
- pIC50 (DDX3 Helicase [5]): 6.43

Structure (SMILES): CCOCc1cn(-c2cccc(S(=O)(=O)Nc3ccccc3C(F)(F)F)c2)nn1 [Compound 66d, 3-(4-(ethoxymethyl)-1H-1,2,3-triazol-1-yl)-N-(2-(trifluoromethyl)phenyl) benzenesulfonamide]
- EC50 [1]: > 58.6 µM
- pEC50 (JEV strain (NJ2008)): 5.21
- IC50 (DDX3 Helicase [11]): 0.4 µM
- pEC50 (HIV (PBMC)): 4.59
- CC50 [6]: > 50 µM
- CC50 at 24 h [9]: 450 µM
- CC50 at 48 h [9]: 357 µM
- CC50 at 72 h [9]: 703 µM
- Normalized % infected cells [3]: 80%
- effect on EBOV replication, in words [3]: able to affect EBOV replication
- CC50 [4]: 58.6 µM

Structure (SMILES): CCCCc1nnc(-c2ccc(NC(=O)Nc3ccccc3C(F)(F)F)cc2)o1 [Compound 112, 1-(4-(5-butyl-1,3,4-oxadiazol-2-yl)phenyl)-3-(2-(trifluoromethyl)phenyl)urea]
- pEC50 [2]: 5.26
- pIC50 (DDX3 Helicase [5]): 6.00

Structure (SMILES): CCCCc1nc(-c2ccc(NC(=O)Nc3ccccc3C(F)(F)F)cc2)no1 [Compound 106, 1-(4-(5-butyl-1,2,4-oxadiazol-3-yl)phenyl)-3-(2-(trifluoromethyl)phenyl)urea]
- pEC50 [2]: 5.66
- pIC50 (DDX3 Helicase [5]): 7.00

Structure (SMILES): CC(C)CCc1cn(-c2ccc(NC(=O)Nc3cccc(F)c3)cc2)nn1 [Compound 55b, 1-(3-fluorophenyl)-3-(4-(4-isopentyl-1H-1,2,3-triazol-1-yl)phenyl)urea]
- activity against HCV, in words [1]: best activity
- EC50 [1]: 0.2 µM
- DDX3 helicase activity compared with EI01D (DDX3 Helicase [11]; in words): approximately ten-fold more active
- IC50 (DDX3 Helicase [11]): 0.2 µM
- pEC50 [2]: 5.74
- CC50 [4]: 183 µM

Structure (SMILES): CCOCc1cn(-c2ccc(NC(=O)Nc3ccccc3C)cc2)nn1 [Compound 20e]
- EC50 [1]: 8.55 µM
- pEC50 (JEV strain (NJ2008)): 4.60
- CC50 [6]: > 50 µM
- CC50 [4]: 51.8 µM
- pIC50 (DDX3 Helicase [5]): 6.03
